The test has as its target T1, HDAC6 (Homo sapiens, UniProt Q9UBN7).
T1 sequence (Q9UBN7 1-1215): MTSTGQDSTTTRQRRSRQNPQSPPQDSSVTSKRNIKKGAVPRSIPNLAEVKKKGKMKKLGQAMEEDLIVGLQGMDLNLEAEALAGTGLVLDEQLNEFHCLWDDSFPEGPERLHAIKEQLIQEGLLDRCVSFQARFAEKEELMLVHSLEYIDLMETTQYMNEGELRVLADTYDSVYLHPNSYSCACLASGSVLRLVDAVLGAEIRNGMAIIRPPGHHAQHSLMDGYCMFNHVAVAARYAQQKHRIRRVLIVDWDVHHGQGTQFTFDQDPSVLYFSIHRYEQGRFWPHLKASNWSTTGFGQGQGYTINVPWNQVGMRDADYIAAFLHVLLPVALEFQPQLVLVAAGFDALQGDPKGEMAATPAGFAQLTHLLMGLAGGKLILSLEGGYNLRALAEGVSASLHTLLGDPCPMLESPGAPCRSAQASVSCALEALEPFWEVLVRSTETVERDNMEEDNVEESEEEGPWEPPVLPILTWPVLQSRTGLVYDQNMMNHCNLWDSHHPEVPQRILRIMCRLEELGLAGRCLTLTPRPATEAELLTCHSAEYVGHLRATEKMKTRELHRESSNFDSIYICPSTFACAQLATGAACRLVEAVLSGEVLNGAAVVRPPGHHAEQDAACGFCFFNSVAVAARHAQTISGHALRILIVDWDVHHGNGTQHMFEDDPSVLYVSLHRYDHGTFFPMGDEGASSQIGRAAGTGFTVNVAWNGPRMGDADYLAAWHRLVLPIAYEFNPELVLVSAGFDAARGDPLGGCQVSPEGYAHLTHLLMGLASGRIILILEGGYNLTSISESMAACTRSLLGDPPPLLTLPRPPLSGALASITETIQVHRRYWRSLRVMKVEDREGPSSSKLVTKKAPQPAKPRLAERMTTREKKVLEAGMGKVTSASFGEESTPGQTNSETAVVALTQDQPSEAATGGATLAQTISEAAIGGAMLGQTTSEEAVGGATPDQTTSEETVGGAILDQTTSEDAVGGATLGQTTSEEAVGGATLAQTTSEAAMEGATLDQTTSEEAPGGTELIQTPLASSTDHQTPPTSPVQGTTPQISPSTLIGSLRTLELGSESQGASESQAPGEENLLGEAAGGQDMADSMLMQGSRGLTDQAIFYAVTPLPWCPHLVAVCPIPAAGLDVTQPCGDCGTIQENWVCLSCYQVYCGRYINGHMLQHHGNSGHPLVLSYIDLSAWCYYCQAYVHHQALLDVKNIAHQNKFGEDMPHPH
Nature of the test: HDAC assay (fluorogenic substrate), HDAC6. It is filed as biochemical. The procedure: Base Reaction buffer: 50 mM Tris-HCl, pH8.0, 137 mM NaCl, 2.7 mM KCl, and 1 mM MgCl2. Add fresh: 1 mg/ml BSA, 1% DMSO
Fluorogenic HDAC General Substrate: 50 μM, Arg-His-Lys-Lys(Ac)
• 1. Deliver 2× enzyme in wells of reaction plate except No Enzyme control wells. Add buffer in No En wells. • 2. Deliver compounds in 100% DMSO into the enzyme mixture by Acoustic technology (Echo550; nanoliter range). Spin down and pre-incubation. • 3. Deliver 2× Substrate Mixture (Fluorogenic HDAC Substrate and co-factor if applicable) in all reaction wells to initiate the reaction. Spin and shake. • 4. Incubate for 30 min for Class 2A, 1 hr for HDAC1, 2, 3, and 6, and 2 hr for the rest of HDACs and SIRTs at 30° C. with seal. Development Step: • 5. Add Developer with Trichostatin A (or Nicotinamide for SIRTs) to stop the reaction and to generate fluorescent color. • 6. Kinetic measurement for 1.5 hr with Envision with 15 min interval. (Ex/Em=360/460 nm) • 7. Take endpoint reading for analysis after the development reaches plateau.

The source of these data is patent publication US11339150B2, “Benzimidazole compounds as HDAC6 inhibitors” (OnKure, Inc., priority 2019, dated 2022).

The term inhibition denotes the share of the control response that was lost under treatment. Read a low inhibition as a weak effect.

Where a name gives a salt, the structure may show the parent alone.

`FC(F)c1nnc(-c2cnc(Nc3cc(Br)c4nc[nH]c4c3)nc2)o1` [Example 2, 4-bromo-N-(5-(5-(difluoromethyl)-1,3,4-oxadiazol-2-yl)pyrimidin-2-yl)-1H-benzo[d]imidazol-6-amine] had an inhibition at 10 µM above 90%.
On to `FC(F)c1nnc(-c2cnc(Nc3cc(-c4cccnc4)c4nc[nH]c4c3)nc2)o1` [Example 3, N-(5-(5-(difluoromethyl)-1,3,4-oxadiazol-2-yl)pyrimidin-2-yl)-4-(pyridin-3-yl)-1H-benzo[d]imidazol-6-amine hydrochloride], for which the inhibition at 10 µM is above 80%.
The value for `Cn1cnc2c(-c3ccccc3)cc(Nc3ncc(-c4nnc(C(F)F)o4)cn3)cc21` [Example 4, N-(5-(5-(difluoromethyl)-1,3,4-oxadiazol-2-yl)pyrimidin-2-yl)-1-methyl-4-phenyl-1H-benzo[d]imidazol-6-amine] was above 70%.
`Cc1nc2c(-c3ccccc3)cc(Nc3ncc(-c4nnc(C(F)F)o4)cn3)cc2[nH]1` [Example 5, N-(5-(5-(difluoromethyl)-1,3,4-oxadiazol-2-yl)pyrimidin-2-yl)-2-methyl-4-phenyl-1H-benzo[d]imidazol-6-amine] returned an inhibition at 10 µM above 90%.
For the compound `CN(C)c1nc2c(-c3ccccc3)cc(Nc3ncc(-c4nnc(C(F)F)o4)cn3)cc2[nH]1` [Example 6, N6-(5-(5-(difluoromethyl)-1,3,4-oxadiazol-2-yl)pyrimidin-2-yl)-N2,N2-dimethyl-4-phenyl-1H-benzo[d]imidazole-2,6-diamine], the inhibition at 10 µM was above 80%.
Compound `CN(c1cc(-c2ccccc2)c2nc[nH]c2c1)c1ncc(-c2nnc(C(F)F)o2)cn1` [Example 7, N-(5-(5-(difluoromethyl)-1,3,4-oxadiazol-2-yl)pyrimidin-2-yl)-N-methyl-4-phenyl-1H-benzo[d]imidazol-6-amine] showed an inhibition at 10 µM above 40%.
`CN(C)C(=O)c1cc(Nc2ncc(-c3nnc(C(F)F)o3)cn2)cc2[nH]cnc12` [Example 8, 6-((5-(5-(difluoromethyl)-1,3,4-oxadiazol-2-yl)pyrimidin-2-yl)amino)-N,N-dimethyl-1H-benzo[d]imidazole-4-carboxamide] showed an inhibition at 10 µM above 80%.
For `Fc1ccc(-c2cc(Nc3ncc(-c4nnc(C(F)F)o4)cn3)cc3[nH]cnc23)c(F)c1` [Example 9, N-(5-(5-(difluoromethyl)-1,3,4-oxadiazol-2-yl)pyrimidin-2-yl)-4-(2,4-difluorophenyl)-1H-benzo[d]imidazol-6-amine], the inhibition at 10 µM was above 90%.
For `FC(F)c1nnc(-c2cnc(Nc3cc(-c4ccccn4)c4nc[nH]c4c3)nc2)o1` [Example 10, N-(5-(5-(difluoromethyl)-1,3,4-oxadiazol-2-yl)pyrimidin-2-yl)-4-(pyridin-2-yl)-1H-benzo[d]imidazol-6-amine], the inhibition at 10 µM is above 90%.
`O=S(=O)(NCCO)c1cc(Nc2ncc(-c3nnc(C(F)F)o3)cn2)cc2[nH]cnc12` [Example 11, 6-((5-(5-(difluoromethyl)-1,3,4-oxadiazol-2-yl)pyrimidin-2-yl)amino)-N-(2-hydroxyethyl)-1H-benzo[d]imidazole-4-sulfonamide] came in with an inhibition at 10 µM above 90%.
`C=CCn1cnc2c(-c3ccccc3)cc(Nc3ncc(-c4nnc(C(F)F)o4)cn3)cc21` [Example 12, 1-allyl-N-(5-(5-(difluoromethyl)-1,3,4-oxadiazol-2-yl)pyrimidin-2-yl)-4-phenyl-1H-benzo[d]imidazol-6-amine] returned an inhibition at 10 µM above 90%.
`OCC(O)Cn1cnc2c(-c3ccccc3)cc(Nc3ncc(-c4nnc(C(F)F)o4)cn3)cc21` (centres unmarked) [Example 13, 3-(6-((5-(5-(difluoromethyl)-1,3,4-oxadiazol-2-yl)pyrimidin-2-yl)amino)-4-phenyl-1H-benzo[d]imidazol-1-yl)propane-1,2-diol] registered an inhibition at 10 µM above 90%.
The compound `OCCn1cnc2c(-c3ccccc3)cc(Nc3ncc(-c4nnc(C(F)F)o4)cn3)cc21` [Example 14, 2-(6-((5-(5-(difluoromethyl)-1,3,4-oxadiazol-2-yl)pyrimidin-2-yl)amino)-4-phenyl-1H-benzo[d]imidazol-1-yl)ethan-1-ol] displayed an inhibition at 10 µM above 90%.
With `CN(C)CCn1cnc2c(-c3ccccc3)cc(Nc3ncc(-c4nnc(C(F)F)o4)cn3)cc21` [Example 15, N-(5-(5-(difluoromethyl)-1,3,4-oxadiazol-2-yl)pyrimidin-2-yl)-1-(2-(dimethylamino)ethyl)-4-phenyl-1H-benzo[d]imidazol-6-amine], the inhibition at 10 µM is above 90%.
For the compound `OC1CCN(CCn2cnc3c(-c4ccccc4)cc(Nc4ncc(-c5nnc(C(F)F)o5)cn4)cc32)C1` (centres unmarked) [Example 16, 1-(2-(6-((5-(5-(difluoromethyl)-1,3,4-oxadiazol-2-yl)pyrimidin-2-yl)amino)-4-phenyl-1H-benzo[d]imidazol-1-yl)ethyl)pyrrolidin-3-ol], the inhibition at 10 µM was above 90%.
For `FC(F)c1nnc(-c2cnc(Nc3cc(-c4ccc(N5CCOCC5)cc4)c4nc[nH]c4c3)nc2)o1` [Example 17, N-(5-(5-(difluoromethyl)-1,3,4-oxadiazol-2-yl)pyrimidin-2-yl)-4-(4-morpholinophenyl)-1H-benzo[d]imidazol-6-amine], the inhibition at 10 µM was above 90%.
Regarding `FC(F)c1nnc(-c2cnc(Nc3cc(-c4ccc(CN5CCOCC5)cc4)c4nc[nH]c4c3)nc2)o1` [Example 18, N-(5-(5-(difluoromethyl)-1,3,4-oxadiazol-2-yl)pyrimidin-2-yl)-4-(4-(morpholinomethyl)phenyl)-1H-benzo[d]imidazol-6-amine], the inhibition at 10 µM is above 90%.
As to `FC(F)c1nnc(-c2cnc(Nc3ccc4nc[nH]c4c3)nc2)o1` [Example 19, N-(5-(5-(difluoromethyl)-1,3,4-oxadiazol-2-yl)pyrimidin-2-yl)-1H-benzo[d]imidazol-6-amine], the inhibition at 10 µM was above 90%.
Turning to `FC(F)c1nnc(-c2cnc(NCc3cc(-c4ccccc4)c4nc[nH]c4c3)nc2)o1` [Example 20, 5-(5-(difluoromethyl)-1,3,4-oxadiazol-2-yl)-N-((4-phenyl-1H-benzo[d]imidazol-6-yl)methyl)pyrimidin-2-amine], the inhibition at 10 µM was above 90%.
`OCCn1cnc2c(-c3ccccn3)cc(Nc3ncc(-c4nnc(C(F)F)o4)cn3)cc21` [Example 21, 2-(6-((5-(5-(difluoromethyl)-1,3,4-oxadiazol-2-yl)pyrimidin-2-yl)amino)-4-(pyridin-2-yl)-1H-benzo[d]imidazol-1-yl)ethan-1-ol] registered an inhibition at 10 µM above 90%.
In turn, `Fc1cnc(-c2cc(Nc3ncc(-c4nnc(C(F)F)o4)cn3)cc3[nH]cnc23)c(F)c1` [Example 22, N-(5-(5-(difluoromethyl)-1,3,4-oxadiazol-2-yl)pyrimidin-2-yl)-4-(3,5-difluoropyridin-2-yl)-1H-benzo[d]imidazol-6-amine] showed an inhibition at 10 µM above 90%.
Take `FC(F)c1nnc(-c2cnc(Nc3cc(C(F)(F)F)c4nc[nH]c4c3)nc2)o1` [Example 23, N-(5-(5-(difluoromethyl)-1,3,4-oxadiazol-2-yl)pyrimidin-2-yl)-4-(trifluoromethyl)-1H-benzo[d]imidazol-6-amine]: the inhibition at 10 µM was above 90%.
`OCCn1cnc2cc(Nc3ncc(-c4nnc(C(F)F)o4)cn3)cc(-c3ccccc3)c21` [Example 24, 2-(5-((5-(5-(difluoromethyl)-1,3,4-oxadiazol-2-yl)pyrimidin-2-yl)amino)-7-phenyl-1H-benzo[d]imidazol-1-yl)ethan-1-ol] registered an inhibition at 10 µM above 90%.
